Like-named read-outs stand apart in the source and are kept apart here.
How the values were obtained:
[1] = tested on: HACAT cells; test: qHTS cell viability (CellTiter-Glo, 72 h; primary screen), control cell line; format: cell-based, human
[2] = tested on: VN-MCC cell lines (MCC13, MCC26, UISO); test: qHTS cell viability, VN-MCC cell lines as a group (mean AUC, VN.MCC.avg); format: cell-based, human
[3] = tested on: MCC cell lines (WAGA, MKL-1, MKL-2, MCC13, MCC26, UISO); test: qHTS cell viability, all six MCC cell lines as a group (mean AUC, MCC.avg); format: cell-based, human
[4] = tested on: MKL-2 cells (VP-MCC); test: qHTS cell viability (CellTiter-Glo, 72 h; primary and follow-up small molecule screen); format: cell-based, human
[5] = tested on: WAGA cells (VP-MCC); test: as above; format: cell-based, human
[6] = tested on: CRL-7250 cells; test: qHTS cell viability (CellTiter-Glo, 72 h; primary screen), control cell line; format: cell-based
[7] = tested on: MCC13 cells (VN-MCC); test: qHTS cell viability (CellTiter-Glo, 72 h; primary and follow-up small molecule screen); format: cell-based, human
[8] = tested on: UISO cells (VN-MCC); test: as above; format: cell-based, human
[9] = tested on: six MCC cell lines and four control cell lines; test: qHTS cell viability, all 10 cell lines screened; format: cell-based
[10] = tested on: NIH-3T3 cells; test: qHTS cell viability (CellTiter-Glo, 72 h; primary screen), control cell line; format: cell-based, mouse
[11] = tested on: HEK293T cells; test: as above; format: cell-based, human
[12] = tested on: MCC26 cells (VN-MCC); test: qHTS cell viability (CellTiter-Glo, 72 h; primary and follow-up small molecule screen); format: cell-based, human
[13] = tested on: control cell lines (HACAT, HEK293T, CRL-7250, NIH-3T3); test: qHTS cell viability, control cell lines as a group (mean AUC, Control.avg); format: cell-based
[14] = tested on: VP-MCC cell lines (WAGA, MKL-1, MKL-2); test: qHTS cell viability, VP-MCC cell lines as a group (mean AUC, VP.MCC.avg); format: cell-based, human
[15] = tested on: MKL-1 cells (VP-MCC); test: qHTS cell viability (CellTiter-Glo, 72 h; primary and follow-up small molecule screen); format: cell-based, human
[16] = NPC library, qHTS dose-response AUC, HACAT control
[17] = NPC library, mean AUC of VN-MCC cell lines
[18] = NPC library, therapeutic window: Control avg AUC minus VN-MCC avg AUC
[19] = NPC library, mean AUC of six MCC cell lines
[20] = NPC library, qHTS dose-response AUC, MKL2
[21] = NPC library, qHTS dose-response AUC, WAGA
[22] = NPC library, qHTS dose-response AUC, CRL7250 control
[23] = NPC library, qHTS dose-response AUC, MCC13
[24] = NPC library, qHTS dose-response AUC, UISO
[25] = NPC library, therapeutic window: Control avg AUC minus MCC avg AUC
[26] = NPC library, qHTS dose-response AUC, NIH3T3 control
[27] = NPC library, qHTS dose-response AUC, HEK293T control
[28] = NPC library, qHTS dose-response AUC, MCC26
[29] = NPC library, mean AUC of control cell lines
[30] = NPC library, mean AUC of VP-MCC cell lines
[31] = NPC library, therapeutic window: Control avg AUC minus VP-MCC avg AUC
[32] = NPC library, qHTS dose-response AUC, MKL1

Q: What does the source list for `N=C(N)NN=C(/C=C/c1ccc([N+](=O)[O-])o1)/C=C/c1ccc([N+](=O)[O-])o1` [Nitrovin]?
A: HACAT_AUC [1, 16]: 415.924; VN-MCC_Avg_AUC [2, 17]: 384.368; Control-VN-MCC [2, 18]: -13.9562; MCC_Avg_AUC [3, 19]: 325.445; MKL2_AUC [4, 20]: 260.273; WAGA_AUC [5, 21]: 248.028; CRL7250_AUC [6, 22]: 323.737; MCC13_AUC [7, 23]: 392.271; UISO_AUC [8, 24]: 349.388; Control-MCC [9, 25]: 44.9672; NIH3T3_AUC [10, 26]: 385.648; HEK293T_AUC [11, 27]: 356.338; MCC26_AUC [12, 28]: 411.446; Control_Avg_AUC [13, 29]: 370.412; VP-MCC_Avg_AUC [14, 30]: 266.521; Control-VP-MCC [14, 31]: 103.891; MKL1_AUC [15, 32]: 291.263

Q: Which HACAT_AUC [1] does the source give for `CN(C)C(=O)Nc1ccc(Cl)c(Cl)c1` [Diuron] here?
A: 457.965

Q: And the Control-VN-MCC [2]?
A: 17.4511

Q: What about the VN-MCC_Avg_AUC [2] of the same compound?
A: 460.449

Q: And the MCC_Avg_AUC [3]?
A: 327.57

Q: And the “Area under the dose-response curve (AUC) MKL-2 Replicate 1” value [4]?
A: 465.6

Q: And the “Area under the dose-response curve (AUC) MKL-2 Replicate 2” value [4]?
A: 447.9

Q: And the “Area under the dose-response curve (AUC) MKL-2 Replicate 3” value [4]?
A: 414.0

Q: And the MKL2_AUC [4]?
A: 290.674

Q: And the “Area under the dose-response curve (AUC) WAGA Replicate 1” value [5]?
A: 487.4

Q: What about the “Area under the dose-response curve (AUC) WAGA Replicate 2” value [5] of the same compound?
A: 506.5

Q: What about the “Area under the dose-response curve (AUC) WAGA Replicate 3” value [5] of the same compound?
A: 435.9

Q: What about the WAGA_AUC [5] of the same compound?
A: 128.39

Q: What about the CRL7250_AUC [6] of the same compound?
A: 483.042

Q: What about the “Area under the dose-response curve (AUC) MCC13 Replicate 1” value [7] of the same compound?
A: 429.4

Q: And the “Area under the dose-response curve (AUC) MCC13 Replicate 2” value [7]?
A: 471.6

Q: What about the “Area under the dose-response curve (AUC) MCC13 Replicate 3” value [7] of the same compound?
A: 443.0

Q: What about the MCC13_AUC [7] of the same compound?
A: 486.707

Q: What about the “Area under the dose-response curve (AUC) UISO Replicate 1” value [8] of the same compound?
A: 424.2

Q: What about the “Area under the dose-response curve (AUC) UISO Replicate 2” value [8] of the same compound?
A: 442.5

Q: What about the “Area under the dose-response curve (AUC) UISO Replicate 3” value [8] of the same compound?
A: 396.8

Q: What about the UISO_AUC [8] of the same compound?
A: 432.63

Q: What about the Control-MCC [9] of the same compound?
A: 150.329

Q: And the NIH3T3_AUC [10]?
A: 473.572

Q: And the HEK293T_AUC [11]?
A: 497.019

Q: And the “Area under the dose-response curve (AUC) MCC26 Replicate 1” value [12]?
A: 419.4

Q: What about the “Area under the dose-response curve (AUC) MCC26 Replicate 2” value [12] of the same compound?
A: 420.5

Q: And the “Area under the dose-response curve (AUC) MCC26 Replicate 3” value [12]?
A: 426.9

Q: And the MCC26_AUC [12]?
A: 462.009

Q: What about the Control_Avg_AUC [13] of the same compound?
A: 477.9

Q: What about the Control-VP-MCC [14] of the same compound?
A: 283.207

Q: And the VP-MCC_Avg_AUC [14]?
A: 194.692

Q: And the “Area under the dose-response curve (AUC) MKL-1 Replicate 1” value [15]?
A: 459.9

Q: And the “Area under the dose-response curve (AUC) MKL-1 Replicate 2” value [15]?
A: 477.0

Q: And the “Area under the dose-response curve (AUC) MKL-1 Replicate 3” value [15]?
A: 426.1

Q: And the MKL1_AUC [15]?
A: 165.013

Q: Which results are given for `Cc1nc2ccccn2c(=O)c1CCN1CCC(C(=O)c2ccc(F)cc2)CC1` [Pirenperone]?
A: HACAT_AUC [1, 16]: 457.02; HACAT_AUC ([1]; area under the dose-response curve, HACAT control cells, AUC<450 = reduced viability): 457.02; VN-MCC_Avg_AUC [2, 17]: 426.258; Control-VN-MCC [2, 18]: 40.1758; MCC_Avg_AUC [3, 19]: 419.003; MKL2_AUC [4, 20]: 400.974; MKL2_AUC ([4]; area under the dose-response curve, MKL-2 cells, AUC<450 = reduced viability): 400.974; WAGA_AUC [5, 21]: 415.843; WAGA_AUC ([5]; area under the dose-response curve, WAGA cells, AUC<450 = reduced viability): 415.843; CRL7250_AUC [6, 22]: 480.924; CRL7250_AUC ([6]; area under the dose-response curve, CRL7250 control cells, AUC<450 = reduced viability): 480.924; MCC13_AUC [7, 23]: 440.287; MCC13_AUC ([7]; area under the dose-response curve, MCC13 cells, AUC<450 = reduced viability): 440.287; UISO_AUC [8, 24]: 436.893; UISO_AUC ([8]; area under the dose-response curve, UISO cells, AUC<450 = reduced viability): 436.893; Control-MCC [9, 25]: 47.4309; NIH3T3_AUC [10, 26]: 477.551; NIH3T3_AUC ([10]; area under the dose-response curve, NIH3T3 control cells, AUC<450 = reduced viability): 477.551; HEK293T_AUC [11, 27]: 450.239; HEK293T_AUC ([11]; area under the dose-response curve, HEK293T control cells, AUC<450 = reduced viability): 450.239; MCC26_AUC [12, 28]: 401.594; MCC26_AUC ([12]; area under the dose-response curve, MCC26 cells, AUC<450 = reduced viability): 401.594; Control_Avg_AUC [13, 29]: 466.434; VP-MCC_Avg_AUC [14, 30]: 411.748; Control-VP-MCC [14, 31]: 54.686; MKL1_AUC [15, 32]: 418.427; MKL1_AUC ([15]; {}): 418.427

Source: PMC11822212, “High-throughput screening identifies Aurora kinase B as a critical therapeutic target for Merkel cell carcinoma” (Nature Communications, 2025)
